The record followed here is PubChem BioAssay AID256 (DTP/NCI, 2004).

Values joined by “and” are separate entries in the source; they are usually repeats but may differ in a detail not shown here. Identical values can stand only once. Toxic doses and inconclusive results are not listed. Residues, ends and D or L forms follow the SMILES beside them. *: point of attachment. Cbz = O=C(OCc1ccccc1)*; OtBu = CC(C)(C)O*

In the assay the test system is CD2F1 mice, L1210 leukemia ip, survival T/C. In words: NCI In Vivo Anticancer Drug Screen. Data for tumor model L1210 Leukemia (intraperitoneal) in CD2F1 (CDF1) mice. The conditions noted are these: higher = longer survival. An outline of the steps:
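Antitumor effect is scored in animals hosting a serially transplanted tumor. Values compare compound-dosed animals against vehicle-only controls as a simple quotient.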

The mark [1] stands for this setting: endpoint: mean survival time, dose: 100.0 mg/kg/injection, schedule: Q01DX009 (ip), vehicle: saline with Tween-80.
The mark [2] stands for this setting: endpoint: mean survival time, dose: 100.0 mg/kg/injection, schedule: Q04DX003 (ip), vehicle: saline with Tween-80.
[3] abbreviates: endpoint: mean survival time, dose: 200.0 mg/kg/injection, schedule: Q01DX009 (ip), vehicle: saline with Tween-80.
Setting [4] is: endpoint: mean survival time, dose: 200.0 mg/kg/injection, schedule: Q04DX003 (ip), vehicle: saline with Tween-80.
Setting [5] is: endpoint: mean survival time, dose: 400.0 mg/kg/injection, schedule: Q01DX009 (ip), vehicle: saline with Tween-80.
Where [6] appears, read: endpoint: mean survival time, dose: 400.0 mg/kg/injection, schedule: Q04DX003 (ip), vehicle: saline with Tween-80.
The mark [7] stands for this setting: endpoint: mean survival time, dose: 100.0 mg/kg/injection, schedule: Q01DX001 (ip), vehicle: saline.
Where [8] appears, read: endpoint: mean survival time, dose: 200.0 mg/kg/injection, schedule: Q01DX001 (ip), vehicle: saline.
Setting [9] is: endpoint: mean survival time, dose: 12.5 mg/kg/injection, schedule: Q01DX009 (ip), vehicle: saline.
Setting [10] is: endpoint: mean survival time, dose: 12.5 mg/kg/injection, schedule: Q04DX003 (ip), vehicle: saline.
The mark [11] stands for this setting: endpoint: mean survival time, dose: 25.0 mg/kg/injection, schedule: Q04DX003 (ip), vehicle: saline.
The mark [12] stands for this setting: endpoint: mean survival time, dose: 50.0 mg/kg/injection, schedule: Q01DX009 (ip), vehicle: saline.
[13] abbreviates: endpoint: mean survival time, dose: 100.0 mg/kg/injection, schedule: Q01DX009 (ip), vehicle: saline.
Where [14] appears, read: endpoint: mean survival time, dose: 100.0 mg/kg/injection, schedule: Q04DX002 (ip), vehicle: saline with Tween-80.
The mark [15] stands for this setting: endpoint: mean survival time, dose: 200.0 mg/kg/injection, schedule: Q04DX002 (ip), vehicle: saline with Tween-80.
[16] abbreviates: endpoint: mean survival time, dose: 400.0 mg/kg/injection, schedule: Q04DX002 (ip), vehicle: saline with Tween-80.

For `Cc1ccc(S(=O)(=O)OCCCCCOS(=O)(=O)c2ccc(C)cc2)cc1`, the T/C under setting [1] is 100 % of control; the T/C under setting [2] is 100 % of control; the T/C under setting [3] was 100 % of control; the T/C under setting [4] is 100 % of control; the T/C under setting [5] was 100 % of control; the T/C under setting [6] is 97 % of control.

Take `CNS(=O)(=O)c1ccc2c(c1)nc(SC)n2C`: the T/C under setting [1] is 101 % of control; the T/C under setting [2] was 102 % of control; the T/C under setting [3] was 101 % of control; the T/C under setting [4] was 94 % of control; the T/C under setting [5] is 93 % of control; the T/C under setting [6] was 95 % of control.

Consider `OCC(O)C1OC(OC2CCCCC2)C(O)C(O)C1O` (configuration not stated), for which the T/C under setting [7] was 95 % of control; the T/C under setting [8] was 101 % of control; the T/C (endpoint: mean survival time, dose: 400.0 mg/kg/injection, schedule: Q01DX001 (ip), vehicle: saline) was 96 % of control.

Regarding `O=C1OC(=O)C2C3C=CC(O3)C12` (configuration not stated), the T/C runs as follows: (endpoint: mean survival time, dose: 10.0 mg/kg/injection, schedule: Q01DX009 (ip), vehicle: saline with Tween-80) 100 % of control; under setting [9], 105 % of control; under setting [10], 95 % of control; (endpoint: mean survival time, dose: 20.0 mg/kg/injection, schedule: Q01DX009 (ip), vehicle: saline with Tween-80) 98 % of control; (endpoint: mean survival time, dose: 25.0 mg/kg/injection, schedule: Q01DX009 (ip), vehicle: saline) 94 % of control; (endpoint: mean survival time, dose: 25.0 mg/kg/injection, schedule: Q04DX002 (ip), vehicle: saline) 104 % of control. The T/C is, setting by setting: under setting [11], 98 % of control; under setting [12], 102 % of control; (endpoint: mean survival time, dose: 50.0 mg/kg/injection, schedule: Q04DX002 (ip), vehicle: saline) 104 % of control; (endpoint: mean survival time, dose: 50.0 mg/kg/injection, schedule: Q04DX003 (ip), vehicle: saline) 95 % of control; (endpoint: mean survival time, dose: 100.0 mg/kg/injection, schedule: Q04DX002 (ip), vehicle: saline) 97 % of control and 98 % of control.

`O=C1CC2CCCCN2C2=C1CCCC2` (configuration not stated): for the setting “endpoint: mean survival time, dose: 100.0 mg/kg/injection, schedule: Q04DX003 (ip), vehicle: acetone”, the T/C is 97 % of control.

For the compound `Cc1nn(-c2ccc(Cl)cc2)c(C)c1N=O`, the T/C (endpoint: mean survival time, dose: 100.0 mg/kg/injection, schedule: Q01DX001 (ip), vehicle: saline with Tween-80) was 104 % of control.

Take `CCC(C)C(NC(=O)OCc1ccccc1)C(=O)NC(C(=O)NC(CCC(=O)OC(C)(C)C)C(=O)OC)C(C)C` (stereo not drawn) (Cbz-Ile-Val-Glu(OtBu)-OMe; configuration not given here): the T/C reads like this: (endpoint: mean survival time, dose: 100.0 mg/kg/injection, schedule: Q04DX003 (ip), vehicle: saline sonified) 88 % of control; (endpoint: mean survival time, dose: 400.0 mg/kg/injection, schedule: Q04DX003 (ip), vehicle: saline sonified) 92 % of control.

Turning to `Cc1nc2ccc(N)cc2[nH]1`, the T/C under setting [12] was 95 % of control; the T/C under setting [13] is 113 % of control; the T/C (endpoint: mean survival time, dose: 200.0 mg/kg/injection, schedule: Q01DX009 (ip), vehicle: saline) was 95 % of control.

With `O=C1CC2CCC1C2` (configuration not stated), the T/C by setting is: (endpoint: mean survival time, dose: 25.0 mg/kg/injection, schedule: Q04DX003 (ip), vehicle: Klucel (hydroxypropylcellulose) (HPC)) 97 % of control; (endpoint: mean survival time, dose: 50.0 mg/kg/injection, schedule: Q04DX003 (ip), vehicle: Klucel (hydroxypropylcellulose) (HPC)) 98 % of control; (endpoint: mean survival time, dose: 100.0 mg/kg/injection, schedule: Q04DX003 (ip), vehicle: Klucel (hydroxypropylcellulose) (HPC)) 97 % of control.

Turning to `Cc1cc(C)c2c(C#N)cn(-c3ccccc3Cl)c2n1`, the T/C is, setting by setting: (endpoint: mean survival time, dose: 100.0 mg/kg/injection, schedule: Q04DX003 (ip), vehicle: saline) 101 % of control; (endpoint: mean survival time, dose: 200.0 mg/kg/injection, schedule: Q04DX003 (ip), vehicle: saline) 101 % of control; (endpoint: mean survival time, dose: 400.0 mg/kg/injection, schedule: Q04DX003 (ip), vehicle: saline) 97 % of control.

As to `O=C(NCCCN1CC1)C(=O)NCCCN1CC1`, the T/C reads like this: (endpoint: mean survival time, dose: 3.13 mg/kg/injection, schedule: Q01DX009 (ip), vehicle: saline) 191 % of control; under setting [9], 101 % of control.

Consider `[Au].[NH-]C1CCCCC1[NH-].[NH-]C1CCCCC1[NH-]` (configuration not stated), for which the T/C is 97 % of control (endpoint: mean survival time, dose: 3.13 mg/kg/injection, schedule: Q04DX003 (ip), vehicle: saline); 96 % of control (endpoint: mean survival time, dose: 6.25 mg/kg/injection, schedule: Q04DX003 (ip), vehicle: saline); 97 % of control under setting [10]; 100 % of control under setting [11].

For the compound `O=c1n[n+]([O-])ccn1C1OC(CO)C(O)C1O` (configuration not stated), the T/C under setting [12] was 107 % of control; the T/C under setting [13] is 120 % of control and 121 % of control; the T/C (endpoint: mean survival time, dose: 300.0 mg/kg/injection, schedule: Q01DX009 (ip), vehicle: saline) is 157 % of control and 173 % of control; the T/C (endpoint: mean survival time, dose: 400.0 mg/kg/injection, schedule: Q01DX009 (ip), vehicle: saline) is 150 % of control; the T/C (endpoint: mean survival time, dose: 600.0 mg/kg/injection, schedule: Q01DX009 (ip), vehicle: saline) was 91 % of control; the T/C (endpoint: median survival time, dose: 200.0 mg/kg/injection, schedule: Q01DX009 (ip), vehicle: saline) is 150 % of control. Besides, the T/C was 161 % of control (endpoint: median survival time, dose: 288.0 mg/kg/injection, schedule: Q01DX009 (ip), vehicle: saline); 174 % of control (endpoint: median survival time, dose: 300.0 mg/kg/injection, schedule: Q01DX009 (ip), vehicle: saline); 180 % of control (endpoint: median survival time, dose: 480.0 mg/kg/injection, schedule: Q01DX009 (ip), vehicle: saline).

Turning to `Cc1cccc2c1NC(=O)C2=O`, the T/C is, setting by setting: (endpoint: median survival time, dose: 100.0 mg/kg/injection, schedule: Q04DX002 (ip), vehicle: saline with Tween-80) 94 % of control; (endpoint: median survival time, dose: 400.0 mg/kg/injection, schedule: Q04DX002 (ip), vehicle: saline with Tween-80) 105 % of control.

Regarding `CCCCOC(=O)Nc1ccccn1`, the T/C by setting is: under setting [14], 101 % of control; under setting [15], 104 % of control.

Turning to `CCOc1ccc(OCC)c(NC(=O)Nc2ccccc2OC)c1`, the T/C under setting [14] is 96 % of control, the T/C under setting [15] was 96 % of control and the T/C under setting [16] is 96 % of control.

Take `CNC(=S)N(C)c1nc(C)cs1`: the T/C by setting is: under setting [14], 91 % of control; under setting [15], 95 % of control; under setting [16], 103 % of control.

In the case of `O=S(=O)(Nc1c(O)ccc2ccccc12)c1ccccc1`, the T/C was 97 % of control under setting [2], 97 % of control under setting [4] and 92 % of control under setting [6].

As to `COc1ccc(C(N)=O)cc1N=NN(C)C`, the T/C was 158 % of control (endpoint: mean survival time, dose: 37.5 mg/kg/injection, schedule: Q01DX009 (ip), vehicle: Klucel (hydroxypropylcellulose) (HPC)) and 109 % of control (endpoint: mean survival time, dose: 75.0 mg/kg/injection, schedule: Q01DX009 (ip), vehicle: Klucel (hydroxypropylcellulose) (HPC)).

In the case of `CCCCCCCCCCCCCCCC(=O)OCC1OC(N2C=CC(=O)CC2=O)C(O)C1O` (configuration not stated), the T/C (endpoint: median survival time, dose: 13.0 mg/kg/injection, schedule: Q01DX009 (ip), vehicle: saline + alcohol) is 174 % of control; the T/C (endpoint: median survival time, dose: 20.0 mg/kg/injection, schedule: Q01DX009 (ip), vehicle: saline + alcohol) was 188 % of control; the T/C (endpoint: median survival time, dose: 30.0 mg/kg/injection, schedule: Q01DX009 (ip), vehicle: saline + alcohol) is 174 % of control.

Take `Nc1ccc(S(=O)(=O)c2ccc(N)c(S(N)(=O)=O)c2)cc1`: the T/C is 92 % of control under setting [1], 91 % of control under setting [3] and 100 % of control under setting [5].

With `COc1cc(C2=NCCO2)cc(OC)c1OC`, the T/C under setting [2] was 103 % of control, the T/C under setting [4] is 93 % of control and the T/C under setting [6] was 93 % of control.

As for `O=C(COc1ccc(Cl)c(Cl)c1)NCc1ccc(Cl)cc1`, the T/C by setting is: under setting [2], 97 % of control; under setting [4], 95 % of control; under setting [6], 93 % of control.

For the compound `O=[N+]([O-])O.[NH2-].[NH2-].[NH2-].[NH2-].[OH-].[OH-].[Pt+4].[Pt+4]`, the T/C is, setting by setting: (endpoint: mean survival time, dose: 2.5 mg/kg/injection, schedule: Q04DX003 (ip), vehicle: water) 89 % of control; (endpoint: mean survival time, dose: 5.0 mg/kg/injection, schedule: Q04DX003 (ip), vehicle: water) 97 % of control; (endpoint: median survival time, dose: 0.15 mg/kg/injection, schedule: Q04DX003 (ip), vehicle: water) 97 % of control; (endpoint: median survival time, dose: 0.31 mg/kg/injection, schedule: Q04DX003 (ip), vehicle: water) 97 % of control.

As to `CCCC(O)C(N)CC` (configuration not stated), the T/C is, setting by setting: under setting [7], 98 % of control; under setting [8], 90 % of control.
